One compound from patent US9212196B2, “Hypophosphorous acid derivatives having antihyperalgic activity and biological applications thereof” (UNIVERSITE PARIS DESCARTES, priority 2011, dated 2015) can be followed below.

One assay addresses mGlu6 (Homo sapiens (Human), UniProt O15303). In words: Agonist activity on mGlu6 in transfected HEK293 cells, intracellular calcium release (Fluo4-AM). The assay is classed as cell-based. The following applies: transfected cells, calcium release; read-out: mGlu6 EC50 μM (n). From the text:
(§1) The EC50's are compared to those of L-AP4 (L-2-amino-4-phosphonobutyric acid) used as a reference.
(§2) Metabotropic glutamate receptors were transiently transfected in HEK293 cells by electroporation as described elsewhere (Brabet I. et al., 1998) and plated in 96-well microplates. The high affinity glutamate transporter EAAC1 was co-transfected with the receptor in order to avoid any influence of glutamate released by the cells in the assay medium. In the experiments carried out by the inventors, Group-III mGluRs were co-transfected with a chimeric G-protein which couples the activation of the receptor to the phospholipase-C (PLC) pathway. Thus receptor activation induces production of inositol phosphate (IP) which in turn induces intracellular Ca^2+ release. Receptor activity was then determined by measurement of the IP production or Ca release as already described (Goudet C. et al., PNAS 2004). For intracellular calcium measurements, cells expressing mGluRs were loaded with Ca2+-sensitive fluorescent dye Fluo-4 AM (Invitrogen, Cergy-Pontoise, France) dissolved in Hanks' balanced salt solution (HBSS, Invitrogen, Cergy-Pontoise, France) containing 2.5 mM Probenicid (Sigma-Aldrich Chemie, Saint-Quentin Fallavier, France) for 1 h at 37° C., then washed and incubated with HBSS containing probenecid. A drug plate was prepared with the various concentrations of agonist to be tested and drug solution was added in each well after 20 s of recording. Fluorescence signals (excitation 485 nm, emission 525 nm) were measured by using the fluorescence microplate reader Flexstation III (Molecular Devices, Saint-Grégoire, France) at sampling intervals of 1.5 s for 60 s. All points are realized in triplicate.
(§3) The dose-response curves were fitted using the GraphPad Prism program and the following equation: y=[(ymax−ymin)/(1+(x/EC50)n)]+ymin where EC50 is the concentration of the compound necessary to obtain the half maximal effect and n is the Hill coefficient.
In general terms: A change in cytosolic calcium serves as a functional read-out for many receptors and channels.

In assay [1] the target is mGlu7 (Homo sapiens (Human), UniProt Q14831). Kind of assay: Agonist activity on mGlu7 in transfected HEK293 cells, intracellular calcium release (Fluo4-AM). The following applies: transfected cells, calcium release; read-out: mGlu7 EC50 μM (n). The assay is classed as cell-based.
Description: as §1, §2, §3

For assay [2], the system named is mGlu7. The description is as above. The following applies: ratio of mGlu7 EC50 to mGlu4 EC50. The assay is classed as cell-based.
Description: as §1, §2, §3

In assay [3] the test system is carrageenan inflammatory pain model. Kind of assay: Paw pressure test in carrageenan inflammatory pain model in rats. The format is in vivo, rat. As to the method:
After the induction period of the neuropathy or inflammation, various amounts of derivative 2 dissolved in serum have been injected in rats, (from 0.5 to 15 μg/rat, i.t. from 1 to 30 mg/kg, i.p.) on time-course of vocalization threshold to paw pressure. The results obtained on healthy animals are given on FIG. 1. They are expressed by the time course curves of means+/−SEM of vocalization threshold in grams (n=6-8 rats per group) (A) or by the area under the curve (B). Morphine (10 μg/rat, i.t.) is used as a positive control. […] FIG. 2 illustrates the effect of intrathecal administration of derivative 2 on the vocalization threshold to paw pressure in the carrageenan inflammatory pain model (effect of derivative 2 (0.5, 1, 5, 10 μg/rat, i.t.) on time-course of vocalization threshold to paw pressure). Morphine (10 μg/rat, i.t.) is used as a positive control. […] Nociceptive thresholds, expressed in grams (g), were measured with a Ugo Basile analgesimeter (Apelex, tip diameter of the probe: 1 mm, weight: 30 g) by applying an increasing pressure to the right hind paw of rats until a squeak (vocalization threshold) was obtained (cut-off was 750 g except carrageenan treated animals for which the cut-off was 500 g). The treatments were done after the measurement of two consecutive stable vocalization threshold values and their effects were assessed 15, 30, 45, 60, 90, and 120 min after. […]

The next assay has as its target mGlu4 (Homo sapiens (Human), UniProt Q14833). Kind of assay: Agonist activity on mGlu4 in transfected HEK293 cells, intracellular calcium release (Fluo4-AM). The assay is classed as cell-based. The following applies: transfected cells, calcium release; read-out: mGlu4 EC50 μM (n).
Description: as §1, §2, §3

A further assay has as its system healthy rats. Kind of assay: Paw pressure test in healthy rats. The assay is classed as in vivo, rat. The following applies: i.t., FIG. 1. Here is the method:
After the induction period of the neuropathy or inflammation, various amounts of derivative 2 dissolved in serum have been injected in rats, (from 0.5 to 15 μg/rat, i.t. from 1 to 30 mg/kg, i.p.) on time-course of vocalization threshold to paw pressure. The results obtained on healthy animals are given on FIG. 1. They are expressed by the time course curves of means+/−SEM of vocalization threshold in grams (n=6-8 rats per group) (A) or by the area under the curve (B). Morphine (10 μg/rat, i.t.) is used as a positive control.
The animals were submitted to the paw pressure test previously described by Randall and Selitto (1957). Nociceptive thresholds, expressed in grams (g), were measured with a Ugo Basile analgesimeter (Apelex, tip diameter of the probe: 1 mm, weight: 30 g) by applying an increasing pressure to the right hind paw of rats until a squeak (vocalization threshold) was obtained (cut-off was 750 g except carrageenan treated animals for which the cut-off was 500 g). The treatments were done after the measurement of two consecutive stable vocalization threshold values and their effects were assessed 15, 30, 45, 60, 90, and 120 min after.
Intrathecal injections were performed, under isoflurane anesthesia (4% induction, 2% maintenance), as previously described (Mestre et al., 1994). […]

The term EC50 denotes the midpoint of the concentration-response curve.

Structures are written as SMILES.

Chain of mGlu6 (O15303 25-877): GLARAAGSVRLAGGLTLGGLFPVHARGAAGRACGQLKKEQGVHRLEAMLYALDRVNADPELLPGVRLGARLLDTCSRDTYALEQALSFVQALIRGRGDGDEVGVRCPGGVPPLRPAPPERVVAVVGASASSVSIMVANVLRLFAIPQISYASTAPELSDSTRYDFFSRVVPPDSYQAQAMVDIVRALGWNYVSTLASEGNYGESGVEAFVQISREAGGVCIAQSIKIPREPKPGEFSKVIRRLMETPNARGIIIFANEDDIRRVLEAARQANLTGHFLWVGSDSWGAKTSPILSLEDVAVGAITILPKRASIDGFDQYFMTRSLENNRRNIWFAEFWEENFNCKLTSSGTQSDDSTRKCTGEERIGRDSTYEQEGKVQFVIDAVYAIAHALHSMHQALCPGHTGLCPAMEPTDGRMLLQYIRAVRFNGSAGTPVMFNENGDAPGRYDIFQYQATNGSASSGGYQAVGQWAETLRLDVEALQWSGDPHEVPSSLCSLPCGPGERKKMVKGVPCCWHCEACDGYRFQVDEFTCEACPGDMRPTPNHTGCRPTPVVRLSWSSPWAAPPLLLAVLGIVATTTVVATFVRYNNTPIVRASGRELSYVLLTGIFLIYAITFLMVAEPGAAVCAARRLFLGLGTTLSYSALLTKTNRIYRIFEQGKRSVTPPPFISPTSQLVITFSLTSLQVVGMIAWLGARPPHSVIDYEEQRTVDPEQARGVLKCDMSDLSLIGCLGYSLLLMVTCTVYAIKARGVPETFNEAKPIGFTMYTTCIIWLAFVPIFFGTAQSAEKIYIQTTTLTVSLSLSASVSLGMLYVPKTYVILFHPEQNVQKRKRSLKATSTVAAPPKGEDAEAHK
Chain of mGlu7 (Homo sapiens (Human), UniProt Q14831) (Q14831 35-915): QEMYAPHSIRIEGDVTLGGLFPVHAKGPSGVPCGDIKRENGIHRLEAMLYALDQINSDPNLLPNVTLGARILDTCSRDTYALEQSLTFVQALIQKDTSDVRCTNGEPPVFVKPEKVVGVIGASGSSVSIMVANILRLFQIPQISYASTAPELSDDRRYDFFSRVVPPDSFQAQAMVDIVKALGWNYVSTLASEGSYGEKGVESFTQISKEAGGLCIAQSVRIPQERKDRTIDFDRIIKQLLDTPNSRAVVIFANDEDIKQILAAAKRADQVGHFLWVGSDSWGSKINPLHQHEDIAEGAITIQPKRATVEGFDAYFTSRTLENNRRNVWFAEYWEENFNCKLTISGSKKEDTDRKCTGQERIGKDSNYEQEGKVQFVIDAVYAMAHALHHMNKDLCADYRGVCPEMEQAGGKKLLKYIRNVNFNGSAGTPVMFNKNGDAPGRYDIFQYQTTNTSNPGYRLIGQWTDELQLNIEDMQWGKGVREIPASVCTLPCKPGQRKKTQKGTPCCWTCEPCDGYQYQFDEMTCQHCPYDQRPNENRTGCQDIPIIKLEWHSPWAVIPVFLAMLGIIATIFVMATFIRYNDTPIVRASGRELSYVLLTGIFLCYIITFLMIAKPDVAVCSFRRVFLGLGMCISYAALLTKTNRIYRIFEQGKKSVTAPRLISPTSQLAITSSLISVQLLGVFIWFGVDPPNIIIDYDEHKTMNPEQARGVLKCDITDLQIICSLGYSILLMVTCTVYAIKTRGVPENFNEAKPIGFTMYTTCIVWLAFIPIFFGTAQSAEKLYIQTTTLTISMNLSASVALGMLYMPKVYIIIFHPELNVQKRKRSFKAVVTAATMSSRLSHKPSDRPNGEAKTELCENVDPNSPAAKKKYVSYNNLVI
Chain of mGlu4 (Q14833 33-912): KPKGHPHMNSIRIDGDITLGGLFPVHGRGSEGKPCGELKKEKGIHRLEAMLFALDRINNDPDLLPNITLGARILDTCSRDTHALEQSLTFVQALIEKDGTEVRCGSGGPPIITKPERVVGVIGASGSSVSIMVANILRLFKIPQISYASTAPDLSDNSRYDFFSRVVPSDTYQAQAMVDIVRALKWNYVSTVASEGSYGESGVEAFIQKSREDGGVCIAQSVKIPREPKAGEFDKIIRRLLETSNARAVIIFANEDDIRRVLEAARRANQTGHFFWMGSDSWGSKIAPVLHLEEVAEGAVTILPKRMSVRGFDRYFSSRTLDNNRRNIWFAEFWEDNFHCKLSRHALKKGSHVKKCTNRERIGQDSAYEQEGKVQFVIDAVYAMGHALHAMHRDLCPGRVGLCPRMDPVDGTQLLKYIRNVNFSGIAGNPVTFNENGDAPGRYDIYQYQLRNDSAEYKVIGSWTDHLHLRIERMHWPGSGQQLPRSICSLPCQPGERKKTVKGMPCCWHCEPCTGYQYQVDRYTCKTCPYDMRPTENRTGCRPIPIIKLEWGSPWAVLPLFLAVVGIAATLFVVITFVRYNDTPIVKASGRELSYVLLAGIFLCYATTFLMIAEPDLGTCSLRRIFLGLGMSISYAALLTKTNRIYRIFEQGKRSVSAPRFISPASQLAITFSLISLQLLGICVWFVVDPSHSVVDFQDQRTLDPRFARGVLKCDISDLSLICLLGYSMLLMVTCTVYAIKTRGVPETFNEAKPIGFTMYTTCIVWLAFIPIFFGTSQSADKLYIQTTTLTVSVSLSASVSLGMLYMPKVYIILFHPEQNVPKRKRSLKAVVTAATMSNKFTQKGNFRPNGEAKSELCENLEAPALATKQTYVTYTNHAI

`N[C@@H](CCP(=O)(O)C(O)c1ccc(OCC(=O)O)cc1)C(=O)O` (stereo partly drawn) [Derivative 2, [((3S)-3-Amino-3-carboxy)propyl][(4-(carboxymethoxy)phenyl)hydroxymethyl]phosphinic Acid]: the EC50 on mGlu6 was 4.2 ± 0.6 µM; at mGlu7 [1], 11.6 ± 1.9 µM; at mGlu4, 0.11 ± 0.02 µM. Also, in the assay on mGlu7 [2], the “mGlu7/4 EC50 ratio” value was determined as 100. The “antihyperalgesic effect on vocalization threshold to paw pressure” value in assay [3] (carrageenan inflammatory pain, rats, 0.5-10 μg/rat i.t., FIG. 2) is on record as “abolishes the excess of mechanical pain”. In assay [3] (inflammatory pain, morphine 10 μg/rat i.t. as control), the “antihyperalgesic effect compared to morphine” value is on record as “close to the one of morphine”. Moreover, in the assay with healthy rats, the “perception of mechanical acute pain (vocalization threshold to paw pressure)” value was “does not modify the perception of the mechanical acute pain”.
